Experimental data taken from PubChem BioAssay (NCI).
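The compound was tested at five concentrations on cells cultured in 96-well plates, with a 48-hour exposure period. Here, GI50 denotes the concentration required for 50% inhibition of growth. The concentration for full growth arrest is given as TGI.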

Assays:
Assay in all cases: NCI-60 cell line screen, 48 h
RPMI-8226 leukemia = system: RPMI-8226 leukemia
MOLT-4 leukemia = system: MOLT-4 leukemia
RXF 393 renal = system: RXF 393 renal
CCRF-CEM leukemia = system: CCRF-CEM leukemia
CAKI-1 renal = system: CAKI-1 renal
DU-145 prostate = system: DU-145 prostate
IGROV1 ovarian = system: IGROV1 ovarian
A498 renal = system: A498 renal
NCI-H226 lung = system: NCI-H226 lung
NCI-H522 lung = system: NCI-H522 lung
SK-MEL-28 melanoma = system: SK-MEL-28 melanoma
OVCAR-4 ovarian = system: OVCAR-4 ovarian
OVCAR-8 ovarian = system: OVCAR-8 ovarian
HCT-116 colon = system: HCT-116 colon
MDA-MB-435 = system: MDA-MB-435
HT29 colon = system: HT29 colon
COLO 205 colon = system: COLO 205 colon
HS 578T breast = system: HS 578T breast
ACHN renal = system: ACHN renal
BT-549 breast = system: BT-549 breast
HCC-2998 colon = system: HCC-2998 colon
SF-268 CNS = system: SF-268 CNS
SK-OV-3 ovarian = system: SK-OV-3 ovarian
U251 CNS = system: U251 CNS
A549 NSCLC = system: A549 NSCLC
SR leukemia = system: SR leukemia
SNB-75 CNS = system: SNB-75 CNS
SN12C renal = system: SN12C renal
NCI-H460 lung = system: NCI-H460 lung
HOP-62 NSCLC = system: HOP-62 NSCLC
LOX IMVI melanoma = system: LOX IMVI melanoma
EKVX NSCLC = system: EKVX NSCLC
KM12 colon = system: KM12 colon
SK-MEL-5 melanoma = system: SK-MEL-5 melanoma
TK-10 renal = system: TK-10 renal
MCF7 breast = system: MCF7 breast
UACC-257 melanoma = system: UACC-257 melanoma
PC-3 prostate = system: PC-3 prostate
SF-295 CNS = system: SF-295 CNS
SK-MEL-2 melanoma = system: SK-MEL-2 melanoma
HOP-92 NSCLC = system: HOP-92 NSCLC
OVCAR-3 ovarian = system: OVCAR-3 ovarian
MDA-MB-231 breast = system: MDA-MB-231 breast
SF-539 CNS = system: SF-539 CNS
NCI/ADR-RES ovarian = system: NCI/ADR-RES ovarian
786-0 renal = system: 786-0 renal
NCI-H23 lung = system: NCI-H23 lung
HCT-15 colon = system: HCT-15 colon
SNB-19 CNS = system: SNB-19 CNS
UO-31 renal = system: UO-31 renal
UACC-62 melanoma = system: UACC-62 melanoma
MALME-3M melanoma = system: MALME-3M melanoma
M14 melanoma = system: M14 melanoma
HL-60(TB) leukemia = system: HL-60(TB) leukemia
SW-620 colon = system: SW-620 colon
T-47D breast = system: T-47D breast
OVCAR-5 ovarian = system: OVCAR-5 ovarian
K-562 leukemia = system: K-562 leukemia

COC(=O)[C@H]1[C@@H](O)[C@@]2(O)c3c(OC)cc(O[C@@H]4O[C@@H]([C@H](O)CO)CO[C@H]4OC)cc3O[C@@]2(c2ccc(OC)cc2)[C@@H]1c1ccccc1 showed a GI50 (RPMI-8226 leukemia) of 3.14 nM, a TGI (RPMI-8226 leukemia) of 11.3 nM and a GI50 (MOLT-4 leukemia) of 3.1 nM. It also gave a GI50 (RXF 393 renal) of 9.44 nM, a TGI (RXF 393 renal) of 43.6 nM and a GI50 (CCRF-CEM leukemia) of 5.45 nM. For the same compound, the TGI (CCRF-CEM leukemia) was 125 nM, the GI50 (CAKI-1 renal) was 997 nM and the TGI (CAKI-1 renal) was greater than 1000 nM. The GI50 (DU-145 prostate) was 4.16 nM, the TGI (DU-145 prostate) was 46 nM and the GI50 (IGROV1 ovarian) was 5.85 nM. The TGI (IGROV1 ovarian) was 71.7 nM, the GI50 (A498 renal) was 5.37 nM and the TGI (A498 renal) was 14.1 nM. The GI50 (NCI-H226 lung) was 8.13 nM, the TGI (NCI-H226 lung) was 78 nM and the GI50 (NCI-H522 lung) was 3.44 nM. It also gave a TGI (NCI-H522 lung) of 24.1 nM, a GI50 (SK-MEL-28 melanoma) of 3.21 nM and a TGI (SK-MEL-28 melanoma) of 11.9 nM. The GI50 (OVCAR-4 ovarian) was 5.06 nM, the TGI (OVCAR-4 ovarian) was 48.4 nM and the GI50 (OVCAR-8 ovarian) was 19.3 nM. It also gave a TGI (OVCAR-8 ovarian) of 136 nM, a GI50 (HCT-116 colon) of 3.71 nM and a GI50 (MDA-MB-435) of 3.58 nM. The TGI (MDA-MB-435) was 14.3 nM, the GI50 (HT29 colon) was 3 nM and the TGI (HT29 colon) was 14.2 nM. The GI50 (COLO 205 colon) was 3.09 nM, the TGI (COLO 205 colon) was 9.89 nM and the GI50 (HS 578T breast) was 5.96 nM. For the same compound, the TGI (HS 578T breast) was 80.6 nM, the GI50 (ACHN renal) was 59.7 nM and the TGI (ACHN renal) was 783 nM. It also gave a GI50 (BT-549 breast) of 4.34 nM, a TGI (BT-549 breast) of 32.2 nM and a GI50 (HCC-2998 colon) of 2.97 nM. The TGI (HCC-2998 colon) was 16.4 nM, the GI50 (SF-268 CNS) was 3.42 nM and the TGI (SF-268 CNS) was 42.5 nM. The GI50 (SK-OV-3 ovarian) was 2.96 nM, the TGI (SK-OV-3 ovarian) was 32.5 nM and the GI50 (U251 CNS) was 3.52 nM. The TGI (U251 CNS) was 20.2 nM, the GI50 (A549 NSCLC) was 4.63 nM and the TGI (A549 NSCLC) was 45.7 nM. It also gave a GI50 (SR leukemia) of 3.41 nM, a TGI (SR leukemia) of 147 nM and a GI50 (SNB-75 CNS) of 4 nM. For the same compound, the TGI (SNB-75 CNS) was 32.1 nM, the GI50 (SN12C renal) was 3.59 nM and the TGI (SN12C renal) was 50.1 nM. It also gave a GI50 (NCI-H460 lung) of 4 nM, a TGI (NCI-H460 lung) of 69.5 nM and a GI50 (HOP-62 NSCLC) of 3.19 nM. The TGI (HOP-62 NSCLC) was 18.1 nM, the GI50 (LOX IMVI melanoma) was 2.63 nM and the TGI (LOX IMVI melanoma) was 9.86 nM. For the same compound, the GI50 (EKVX NSCLC) was 6.59 nM, the TGI (EKVX NSCLC) was 105 nM and the GI50 (KM12 colon) was 3.29 nM. The TGI (KM12 colon) was 33.3 nM, the GI50 (SK-MEL-5 melanoma) was 6.62 nM and the TGI (SK-MEL-5 melanoma) was 49.4 nM. The GI50 (TK-10 renal) was 29.5 nM, the TGI (TK-10 renal) was 108 nM and the GI50 (MCF7 breast) was 3.12 nM. It also gave a TGI (MCF7 breast) of 33 nM, a GI50 (UACC-257 melanoma) of 6.27 nM and a TGI (UACC-257 melanoma) of 45.1 nM. It also gave a GI50 (PC-3 prostate) of 4.05 nM, a TGI (PC-3 prostate) of 33.8 nM and a GI50 (SF-295 CNS) of 12.7 nM. It also gave a TGI (SF-295 CNS) of 47.1 nM, a GI50 (SK-MEL-2 melanoma) of 3.54 nM and a TGI (SK-MEL-2 melanoma) of 15.8 nM. It also gave a GI50 (HOP-92 NSCLC) of 3.25 nM, a TGI (HOP-92 NSCLC) of 15.1 nM and a GI50 (OVCAR-3 ovarian) of 3.78 nM. The TGI (OVCAR-3 ovarian) was 35 nM, the GI50 (MDA-MB-231 breast) was 3.86 nM and the TGI (MDA-MB-231 breast) was 23.7 nM. For the same compound, the GI50 (SF-539 CNS) was 1.87 nM, the TGI (SF-539 CNS) was 6.86 nM and the TGI (NCI/ADR-RES ovarian) was greater than 1000 nM. It also gave a GI50 (786-0 renal) of 28.2 nM, a TGI (786-0 renal) of 127 nM and a GI50 (NCI-H23 lung) of 4.41 nM. The TGI (NCI-H23 lung) was 42.2 nM, the GI50 (HCT-15 colon) was 233 nM and the TGI (HCT-15 colon) was greater than 1000 nM. The GI50 (SNB-19 CNS) was 2.77 nM, the TGI (SNB-19 CNS) was 38.4 nM and the GI50 (UO-31 renal) was 136 nM. The TGI (UO-31 renal) was 755 nM, the GI50 (UACC-62 melanoma) was 6.94 nM and the TGI (UACC-62 melanoma) was 32.2 nM. It also gave a GI50 (MALME-3M melanoma) of 3.21 nM, a TGI (MALME-3M melanoma) of 25.9 nM and a GI50 (M14 melanoma) of 8.18 nM. The TGI (M14 melanoma) was 27.1 nM, the GI50 (HL-60(TB) leukemia) was 3.27 nM and the TGI (HL-60(TB) leukemia) was 18.5 nM. The GI50 (SW-620 colon) was 6.05 nM, the TGI (SW-620 colon) was 186 nM and the GI50 (T-47D breast) was 2.26 nM. The TGI (T-47D breast) was 19.9 nM, the GI50 (OVCAR-5 ovarian) was 3.83 nM and the TGI (OVCAR-5 ovarian) was 31.1 nM. It also gave a GI50 (K-562 leukemia) of 3.86 nM and a TGI (K-562 leukemia) greater than 1000 nM.
